In publication PMC7672604, “Design, Synthesis, Molecular Docking, Antiapoptotic and Caspase-3 Inhibition of New 1,2,3-Triazole/Bis-2(1H)-Quinolinone Hybrids” (Molecules, 2020):
Where “and” joins values, the source holds several entries; their conditions need not be identical. Equal entries are not always repeated.

System: cytochrome C
Assay: Cytochrome C ELISA in SR human cell line
Assay type: cell-based
Description: The 1,2,3-triazole/biquinolinone derivative 6c was evaluated for cytochrome C against the SR human cell line and the results are listed in Table 4.
Cells were collected from American Type Culture Collection to be grown in […] containing 10% fetal bovine serum at 37 °C, stimulated with the compounds to be tested for cytochrome C using Cytochrome C Human ELISA Kit (ab119521—Cytochrome C Human ELISA Kit, Vaccera institute, Egypt) (See Supplementary Materials). […]
• Equilibrate all materials and prepared reagents to room temperature prior to use.
• It is recommended to assay all standards, controls and samples in duplicate.
13.1. Prepare all reagents, working standards, and samples as directed in the previous sections.
Determine the number of microplate strips required to test the desired number of samples plus […]
appropriate number of wells needed for running blanks and standards. Predilute samples before […]
starting the test procedure with one-part sample to one-part 1X Assay Buffer.
13.2. Wash the microplate twice with approximately 400 μL 1X Wash Buffer per well with […]
thorough aspiration of microplate contents between washes. Allow the 1X Wash Buffer to remain in […]
Note: The color development on the plate should be monitored and the substrate reaction stopped […]
the stop solution when the highest standard has developed a dark blue color. Alternatively, the color development can be monitored by the ELISA reader at 620 nm. […]
Note: It is important that the Stop Solution is mixed quickly and uniformly throughout the microplate to completely inactivate the enzyme. Results must be read immediately after the Stop Solution is added or within one hour if the microplate strips are stored at 2 - 8°C in the dark.
13.15. Read absorbance of each microplate on a spectrophotometer using 450 nm as the primary wavelength (optionally 620 nm as the reference wavelength; 610 nm to 650 nm is acceptable).
Blank the plate reader according to the manufacturer's instructions by using the blank wells.
Determine the absorbance of both the samples and the standards. […]

Compound	Cyt C Conc	Cyt C Fold Change (down-expression relative to control) [fold]
CC(=O)N[C@@H](CS)C(=O)O [NAC, N-acetylcysteine, reference compound]	0.24 ± 0.019 ng/mL	4.13
COc1ccc2[nH]c(=O)cc(-n3cc(COc4cc(=O)[nH]c5ccccc45)nn3)c2c1 [6c, 6-Methoxy-4-(4-(((2-oxo-1,2-dihydroquinolin-4-yl)oxy)methyl)-1H-1,2,3-triazol-1-yl)-quinolin-2(1H)-one]	0.28 ng/mL and 0.28 ± 0.011 ng/mL	
